# Measurements reported in ChEMBL document CHEMBL1147609, “Comparison of 2-phenylspiroindenes and 2-phenylspiroindenediones as estrogen receptor ligands--modeling and binding data don't agree!” (Bioorg Med Chem Lett, 2004).
# Key:
# Estrogen receptor beta = Estrogen receptor beta (Homo sapiens, UniProt Q92731); assay: Binding affinity for estrogen receptor beta
# Estrogen receptor = biological target: T1, Estrogen receptor (Homo sapiens, UniProt P03372); assay: Binding affinity for estrogen receptor alpha
# T1 sequence (P03372 whole entry): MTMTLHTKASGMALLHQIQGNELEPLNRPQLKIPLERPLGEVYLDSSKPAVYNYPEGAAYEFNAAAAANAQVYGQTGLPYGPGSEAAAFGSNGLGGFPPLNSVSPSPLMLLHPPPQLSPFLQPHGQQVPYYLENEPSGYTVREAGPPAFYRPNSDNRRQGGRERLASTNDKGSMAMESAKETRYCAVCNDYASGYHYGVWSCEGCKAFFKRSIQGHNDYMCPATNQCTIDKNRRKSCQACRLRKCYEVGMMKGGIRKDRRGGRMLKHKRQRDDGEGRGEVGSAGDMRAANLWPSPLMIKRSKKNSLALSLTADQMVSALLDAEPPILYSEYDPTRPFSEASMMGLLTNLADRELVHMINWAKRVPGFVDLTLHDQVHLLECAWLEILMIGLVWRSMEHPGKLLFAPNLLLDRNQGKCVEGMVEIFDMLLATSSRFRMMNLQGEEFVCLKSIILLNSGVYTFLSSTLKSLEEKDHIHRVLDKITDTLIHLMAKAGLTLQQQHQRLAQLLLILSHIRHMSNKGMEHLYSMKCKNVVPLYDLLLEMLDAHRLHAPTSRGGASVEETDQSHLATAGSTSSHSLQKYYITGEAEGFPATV
# Chain of Estrogen receptor beta (Q92731 whole entry): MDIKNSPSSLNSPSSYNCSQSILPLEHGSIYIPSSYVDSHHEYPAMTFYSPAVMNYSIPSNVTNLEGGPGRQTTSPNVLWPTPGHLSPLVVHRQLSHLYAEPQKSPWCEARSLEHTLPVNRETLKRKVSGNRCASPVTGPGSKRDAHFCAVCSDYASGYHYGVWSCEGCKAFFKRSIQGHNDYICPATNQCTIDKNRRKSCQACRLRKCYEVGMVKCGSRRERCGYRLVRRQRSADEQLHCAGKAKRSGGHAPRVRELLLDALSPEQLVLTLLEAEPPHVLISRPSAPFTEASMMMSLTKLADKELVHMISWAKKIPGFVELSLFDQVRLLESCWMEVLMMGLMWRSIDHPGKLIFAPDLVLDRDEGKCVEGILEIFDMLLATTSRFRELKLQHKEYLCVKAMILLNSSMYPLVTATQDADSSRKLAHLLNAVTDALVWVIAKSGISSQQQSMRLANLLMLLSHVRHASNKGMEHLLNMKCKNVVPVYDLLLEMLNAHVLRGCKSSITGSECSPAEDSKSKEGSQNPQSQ
IC50 (Estrogen receptor beta) [nM],IC50 (Estrogen receptor) [nM],Compound
28,35,Oc1cccc(C2=Cc3cc(O)ccc3C23Cc2ccccc2C3)c1
329,366,O=C1c2ccccc2C(=O)C12C(c1cccc(O)c1)=Cc1cc(O)ccc12
1.8,,Oc1ccc(C2=Cc3cc(O)ccc3C23Cc2ccc(OCCN4CCCCC4)cc2C3)cc1 (centres undefined)
223,172,O=C1c2ccc(OCCN3CCCCC3)cc2C(=O)C12C(c1ccc(O)cc1)=Cc1cc(O)ccc12 (centres undefined)

Compound,IC50 (Estrogen receptor beta) [nM],IC50 (Estrogen receptor) [nM]
O=C1c2ccccc2C(=O)C12C(c1ccc(O)cc1)=Cc1cc(O)ccc12,103,91
